Data set [1] deals with T1, Nav1.5 (Homo sapiens, UniProt Q14524). In kind it is cell-based.
Data set [2] addresses T1, Nav1.5. In kind it is cell-based. This is another data set of the same source.
Data set [3] concerns the target T2, Nav1.4 (Homo sapiens, UniProt P35499). In kind it is cell-based.
In a further data set the target is Nav1.4 F1586A (Homo sapiens, UniProt P35499, F1586A). Type of data set: cell-based.
In a further data set the target is Nav1.4 WWWW (Homo sapiens, UniProt P35499, F432W/I1280W/I1583W/V787W). Type of data set: cell-based.
In data set [4] the target is Nav1.4 DIV-S6 peptide ([…]) (Homo sapiens, UniProt P35499). In kind it is binding.
The target of data set [5] is T2, Nav1.4. The settings on record: read-out: resting IC50 on Nav1.4; cited from earlier work.
The subject of a further data set is gramicidin-HEK cells. In kind it is cell-based, human.
In data set [6] the test system is Nav1.5 transfected cells (CHO). In kind it is cell-based, Chinese hamster.
The target of data set [7] is T1, Nav1.5. Type of data set: cell-based. The source holds these as a separate data set.
For data set [8], the system named is Nav1.5 transfected cells (CHO).
Data set [9] addresses T1, Nav1.5. In kind it is cell-based. This is another data set of the same source.
Data set [10] concerns the target T1, Nav1.5. In kind it is cell-based. The source holds these as a separate data set.
In a further data set the target is Nav1.5 (SCN5A) (Homo sapiens, UniProt Q14524). Type of data set: cell-based.
The target of data set [11] is T2, Nav1.4. In kind it is cell-based. This is another data set of the same source.
For a further data set, the target named is Nav1.4 P1158S (Homo sapiens, UniProt P35499, P1158S). In kind it is cell-based.
Data set [12] relates to gramicidin containing DC22:1PC LUVs.
The target in data set [13] is T1, Nav1.5.
The next data set concerns Nav. The settings on record: cited from earlier work.
For data set [14], the target named is Nav1.1 pore-mutant (F1763A-LA mutant) (Homo sapiens, UniProt P35498, F1774A). The settings on record: cited from earlier work.
A further data set relates to TTX-sensitive channels. The settings on record: cited from earlier work.

Data on 11 compounds can be found in US20230123654A1 (priority 2020, published 2023).

Several values for one entry are separate records, joined by “and”; a condition that tells them apart may be missing. Equal values may be shown once. Read-outs that look alike come from different tables or passages of the source.

Nav1.4 P1158S, sequence (P35499 whole entry P1158S, looked up): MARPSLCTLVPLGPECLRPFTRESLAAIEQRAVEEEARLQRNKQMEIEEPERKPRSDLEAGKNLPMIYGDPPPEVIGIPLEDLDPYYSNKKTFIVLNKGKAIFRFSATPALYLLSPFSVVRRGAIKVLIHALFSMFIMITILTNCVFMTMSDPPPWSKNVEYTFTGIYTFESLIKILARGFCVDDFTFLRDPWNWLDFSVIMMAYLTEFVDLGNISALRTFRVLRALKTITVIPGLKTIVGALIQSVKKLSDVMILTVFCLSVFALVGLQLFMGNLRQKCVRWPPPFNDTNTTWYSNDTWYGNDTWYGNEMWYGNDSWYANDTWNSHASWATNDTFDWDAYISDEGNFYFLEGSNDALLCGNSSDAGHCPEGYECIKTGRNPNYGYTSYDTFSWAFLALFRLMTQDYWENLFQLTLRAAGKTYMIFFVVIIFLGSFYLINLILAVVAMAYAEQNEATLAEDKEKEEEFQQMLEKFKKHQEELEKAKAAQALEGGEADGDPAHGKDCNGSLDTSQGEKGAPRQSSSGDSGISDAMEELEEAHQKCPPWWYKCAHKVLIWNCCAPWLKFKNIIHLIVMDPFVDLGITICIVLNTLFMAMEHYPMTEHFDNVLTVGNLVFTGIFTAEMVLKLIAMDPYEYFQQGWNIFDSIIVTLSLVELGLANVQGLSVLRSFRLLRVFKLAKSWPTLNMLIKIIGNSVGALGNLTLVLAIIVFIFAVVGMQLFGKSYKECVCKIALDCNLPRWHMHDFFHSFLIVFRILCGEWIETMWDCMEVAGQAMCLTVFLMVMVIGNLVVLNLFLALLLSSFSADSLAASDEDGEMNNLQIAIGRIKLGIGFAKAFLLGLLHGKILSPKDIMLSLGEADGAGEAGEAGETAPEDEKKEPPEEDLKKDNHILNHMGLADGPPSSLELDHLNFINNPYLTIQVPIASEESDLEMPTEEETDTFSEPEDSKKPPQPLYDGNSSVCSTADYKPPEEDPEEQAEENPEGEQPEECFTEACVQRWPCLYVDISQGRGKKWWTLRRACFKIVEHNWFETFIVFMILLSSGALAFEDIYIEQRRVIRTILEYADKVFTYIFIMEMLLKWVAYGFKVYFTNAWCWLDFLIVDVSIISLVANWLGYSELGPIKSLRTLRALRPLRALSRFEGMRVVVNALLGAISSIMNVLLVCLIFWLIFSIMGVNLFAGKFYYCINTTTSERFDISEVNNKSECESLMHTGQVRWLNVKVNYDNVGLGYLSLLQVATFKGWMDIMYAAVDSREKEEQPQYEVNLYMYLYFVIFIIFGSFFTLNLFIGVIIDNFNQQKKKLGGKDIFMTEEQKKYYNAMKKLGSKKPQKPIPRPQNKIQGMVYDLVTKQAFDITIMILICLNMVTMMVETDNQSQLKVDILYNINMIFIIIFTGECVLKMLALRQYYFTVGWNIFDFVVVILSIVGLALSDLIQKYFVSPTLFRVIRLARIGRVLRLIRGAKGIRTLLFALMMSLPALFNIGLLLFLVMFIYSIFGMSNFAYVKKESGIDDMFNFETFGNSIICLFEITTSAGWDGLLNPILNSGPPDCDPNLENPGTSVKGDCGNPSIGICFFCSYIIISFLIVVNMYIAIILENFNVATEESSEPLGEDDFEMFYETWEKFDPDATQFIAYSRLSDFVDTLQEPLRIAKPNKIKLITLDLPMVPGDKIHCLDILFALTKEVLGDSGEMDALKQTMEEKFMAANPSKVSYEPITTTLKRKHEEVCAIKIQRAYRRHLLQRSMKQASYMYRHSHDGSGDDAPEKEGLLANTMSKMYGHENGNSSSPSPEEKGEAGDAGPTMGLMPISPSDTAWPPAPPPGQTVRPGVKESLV
T1 sequence (Q14524 whole entry): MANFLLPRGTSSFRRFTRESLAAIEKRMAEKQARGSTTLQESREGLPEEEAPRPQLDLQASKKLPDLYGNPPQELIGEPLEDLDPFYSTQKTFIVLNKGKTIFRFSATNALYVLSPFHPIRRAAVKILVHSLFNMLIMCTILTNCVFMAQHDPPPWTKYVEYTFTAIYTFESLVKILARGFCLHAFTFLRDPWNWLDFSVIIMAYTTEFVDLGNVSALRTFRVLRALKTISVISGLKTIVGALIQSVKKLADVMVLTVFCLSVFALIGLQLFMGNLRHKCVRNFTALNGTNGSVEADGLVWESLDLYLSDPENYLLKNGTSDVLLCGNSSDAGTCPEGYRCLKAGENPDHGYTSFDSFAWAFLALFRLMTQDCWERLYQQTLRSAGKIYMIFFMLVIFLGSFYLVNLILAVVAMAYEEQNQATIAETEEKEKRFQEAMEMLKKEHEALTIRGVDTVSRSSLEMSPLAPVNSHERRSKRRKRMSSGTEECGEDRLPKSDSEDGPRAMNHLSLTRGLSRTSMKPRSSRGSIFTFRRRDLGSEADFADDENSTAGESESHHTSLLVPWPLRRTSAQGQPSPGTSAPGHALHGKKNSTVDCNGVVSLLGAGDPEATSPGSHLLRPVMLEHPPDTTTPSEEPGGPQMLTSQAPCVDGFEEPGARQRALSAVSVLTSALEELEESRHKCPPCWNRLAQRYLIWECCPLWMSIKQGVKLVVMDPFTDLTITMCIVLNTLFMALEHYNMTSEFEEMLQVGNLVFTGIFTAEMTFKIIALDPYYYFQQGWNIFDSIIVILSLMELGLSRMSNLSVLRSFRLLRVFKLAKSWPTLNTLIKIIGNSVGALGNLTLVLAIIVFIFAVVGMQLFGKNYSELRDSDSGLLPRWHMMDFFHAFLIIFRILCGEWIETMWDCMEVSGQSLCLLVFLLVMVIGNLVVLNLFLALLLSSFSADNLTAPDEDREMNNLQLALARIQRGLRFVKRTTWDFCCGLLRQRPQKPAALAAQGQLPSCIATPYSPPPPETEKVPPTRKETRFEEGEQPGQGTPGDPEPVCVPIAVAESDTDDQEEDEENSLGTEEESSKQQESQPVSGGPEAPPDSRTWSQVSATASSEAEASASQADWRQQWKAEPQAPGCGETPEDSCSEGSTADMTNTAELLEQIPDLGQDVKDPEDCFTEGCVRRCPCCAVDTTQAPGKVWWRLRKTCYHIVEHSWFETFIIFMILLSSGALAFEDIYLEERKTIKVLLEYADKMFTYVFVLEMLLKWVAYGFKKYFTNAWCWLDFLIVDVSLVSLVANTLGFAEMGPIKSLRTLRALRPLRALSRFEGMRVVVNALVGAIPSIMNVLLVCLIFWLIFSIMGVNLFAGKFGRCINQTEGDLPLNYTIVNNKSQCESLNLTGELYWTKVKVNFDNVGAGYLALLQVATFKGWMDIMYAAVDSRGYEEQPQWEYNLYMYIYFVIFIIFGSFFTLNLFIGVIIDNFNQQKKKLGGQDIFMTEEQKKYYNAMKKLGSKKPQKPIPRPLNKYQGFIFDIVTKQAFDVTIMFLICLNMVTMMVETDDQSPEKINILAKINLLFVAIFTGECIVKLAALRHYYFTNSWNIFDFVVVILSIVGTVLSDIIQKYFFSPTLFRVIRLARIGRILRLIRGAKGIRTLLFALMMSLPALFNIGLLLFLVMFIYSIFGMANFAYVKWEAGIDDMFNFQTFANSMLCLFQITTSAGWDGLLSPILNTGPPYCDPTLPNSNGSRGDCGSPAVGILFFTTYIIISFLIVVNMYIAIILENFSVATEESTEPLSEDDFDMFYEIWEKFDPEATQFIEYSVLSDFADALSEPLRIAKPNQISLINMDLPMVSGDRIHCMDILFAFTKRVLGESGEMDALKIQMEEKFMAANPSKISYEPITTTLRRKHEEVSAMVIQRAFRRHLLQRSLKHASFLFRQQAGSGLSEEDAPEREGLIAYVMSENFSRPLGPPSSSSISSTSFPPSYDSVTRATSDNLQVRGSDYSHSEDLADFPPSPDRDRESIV
T2 sequence (P35499 whole entry, looked up): as the sequence (P35499 whole entry P1158S, looked up) above, with S1158P counted along it
Nav1.4 F1586A, sequence (P35499 whole entry F1586A, looked up): as the sequence (P35499 whole entry P1158S, looked up) above, with S1158P, F1586A counted along it
Nav1.4 WWWW, sequence (P35499 whole entry F432W/V787W/I1280W/I1583W, looked up): as the sequence (P35499 whole entry P1158S, looked up) above, with F432W, V787W, S1158P, I1280W, I1583W counted along it

`C[C@]12CC[C@@H]3c4ccc(O)cc4CC[C@H]3[C@@H]1CC[C@@H]2O` [E2, 17β-Estradiol]: on Nav1.5 [1], the “GV − z (slope)” value was 3.1 ± 0.1 and 3.0 ± 0.1 and 2.4 ± 0.1 and 3.5 ± 0.1 and 2.8 ± 0.1 and 3.6 ± 0.1 and 3.4 ± 0.2. Also, the “Percentage of persistent INa” value on Nav1.5 [2] was 0.85 ± 0.06% and 0.91 ± 0.06% and 1.92 ± 0.09% and 0.89 ± 0.06% and 1.73 ± 0.03% and 0.95 ± 0.09% and 0.90 ± 0.11%.

For the compound `CCN(CC)CC(=O)Nc1c(C)cccc1C` [Lidocaine, lidocaine], the “Mean block of INa” value was 60.6±2.3% and ~60% at Nav1.4 [3]; 24.6±9.3% and ~20% on Nav1.4 F1586A; 53.6±11.7% on Nav1.4 WWWW. Further, the “difference between inhibition of WT vs. F1586A” value at Nav1.4 F1586A amounted to 3 fold. In addition, the “peak heat of titration” value in [4] was 968.0 ± 23.4 kcal/mol. At Nav1.4 [5], the concentration for half-maximal inhibition (IC50) is 1100 µM.

Triton X100 [TX100]: the gramicidin currents entry in the data set with gramicidin-HEK cells is reported as “altered the cationic gramicidin currents across all potentials”.

Turning to `CC1(C)CC(O)CC(C)(C)N1[O]` [Tempol], the “ROS levels at high glucose” value in [6] is given as “complete reduction of ROS levels”. The “GV − z (slope)” value on Nav1.5 [7] was 3.9 ± 0.6 and 4.4 ± 0.5 and 2.6 ± 0.2 and 4.0 ± 0.6 and 2.2 ± 0.1 and 4.3 ± 1.0 and 3.4 ± 0.3. Also, the “effect on reduction in cell viability at high glucose” value in data set [8] is recorded as “showed similar results to CANNABIDIOL”.

With `O=C(NCC1CCCCN1)c1cc(OCC(F)(F)F)ccc1OCC(F)(F)F` (centres unmarked) [flecainide], the entries for the “Mean block of INa” value on Nav1.4 [3] and on Nav1.4 WWWW were 64.6±6.0% and 76.4±11.3%, respectively.

Take `OC[C@@H](O)[C@@H](O)[C@H](O)[C@H](O)CO` [Mannitol, mannitol]: at Nav1.5 [7], the “GV − V1/2 (Steady state activation)” value was −39.2 ± 1.6 mV and the “GV − z (slope)” value turned out to be 5.1 ± 0.8. At Nav1.5 [9], the “SSF[I] − V1/2 (Steady State Fast Inactivation)” value is −93.6 ± 2.3 mV and the “SSF[I] − z (slope)” value is −2.1 ± 0.3. Further, the “cell viability, agent alone” value in data set [8] is “no significant effect on the cell viability”.

Regarding `CCCCCCCCCCCCCC(=O)O[C@@H]1[C@@H](C)[C@@]2(O)[C@@H](C=C(CO)C[C@]3(O)C(=O)C(C)=C[C@@H]23)[C@@H]2C(C)(C)[C@]12OC(C)=O` [PMA], on Nav1.5 [1], the “GV − V1/2 (Steady state activation)” value is given as −22.6 ± 1.6 mV and the “GV − z (slope)” value is given as 2.5 ± 0.1. In addition, at Nav1.5 [10], the “SSFI V1/2” value is on record as −76.4 ± 1.7 mV and the “SSFI − z (slope)” value was −2.9 ± 0.2. Moreover, on Nav1.5 [2], the “Percentage of persistent INa” value is recorded as 2.18 ± 0.06%.

On to `Nc1ncnc2c1nc(Sc1ccc(Cl)cc1)n2[C@@H]1O[C@@H]2COP(=O)([O-])O[C@H]2[C@H]1O.[Na+]` [CPT-cAMP, 8-(4-chlorophenylthio) adenosine-3′,5′-cyclic monophosphate], for which, at Nav1.5 [1], the “GV − V1/2 (Steady state activation)” value is −25.2 ± 0.5 mV and the “GV − z (slope)” value stood at 2.5 ± 0.1. For the same compound, at Nav1.5 [10], the “SSFI V1/2” value is on record as −79.4 ± 1.1 mV and the “SSFI − z (slope)” value was −3.0 ± 0.1. Further, at Nav1.5 [2], the “Percentage of persistent INa” value was determined as 2.20 ± 0.08%.

On to `C=C(C)[C@@H]1CCC(C)=C[C@H]1c1c(O)cc(CCCCC)cc1O` [CANNABIDIOL, 2-[(1R,6R)-3-Methyl-6-(1-methylethenyl)-2-cyclohexen-1-yl]-5-pentyl-1,3-benzenediol], for which the “ROS levels at high glucose” value in [6] is given as “complete reduction of ROS levels”. Further, the “GV − z (slope)” value on Nav1.5 [7] was 4.7 ± 0.9 and 3.7 ± 0.6 and 2.8 ± 0.2 and 3.1 ± 0.2. In addition, the “Percentage of persistent INa” value on Nav1.5 [2] was 0.93 ± 0.05% and 1.04 ± 0.11% and 0.88 ± 0.07%. Moreover, on Nav1.5 (SCN5A), the “activation and steady-state inactivation curves” value was “rescues the activation and steady-state inactivation curves”; the late sodium current entry is on record as “indistinguishable from control”. Moreover, the contraction amplitude in the data set on rat diaphragm muscle is reported as ~60 % of control. Besides, the “Mean block of INa” value at Nav1.4 [3] was 42.4±6.4% and ~45%. In addition, on Nav1.4 F1586A, the “Mean block of INa” value was 25.3±4.8% and ~25%; the “difference between inhibition of WT vs. F1586A” value came to 1.5 fold. On Nav1.4 WWWW, the “Mean block of INa” value worked out at 6.4±1.3%. On Nav1.4 [11], the “SSFI V1/2” value is −72.7±3.0 mV, the SSFI z is recorded as −2.8±0.4, the “activation V1/2” value was −14.3±4.2 mV and the activation z was determined as 2.8±0.3. On Nav1.4 P1158S (pH6.4), the “SSFI V1/2” value is listed as −81.7±2.3 mV, the SSFI z was 2.7±0.3, the “activation V1/2” value is −21.1±3.3 mV and the activation z turned out to be 2.5±0.2. In addition, the “persistent currents, Percentage” value at Nav1.4 P1158S (pH6.4) is 5.4±1.2%. In addition, on Nav1.4 P1158S (pH7.4), the “SSFI V1/2” value is listed as −83.0±2.6 mV, the SSFI z is recorded as 3.0±0.3, the “activation V1/2” value is −32.7±3.6 mV and the activation z is on record as 2.9±0.2. For the same compound, the “persistent currents, Percentage” value on Nav1.4 P1158S (pH7.4) amounted to 1.0±0.2%. The “peak heat of titration” value in data set [4] was found to be 1022.2 ± 160.6 kcal/mol. Further, the gramicidin currents entry in the data set on gramicidin-HEK cells was “slightly altered gramicidin currents”. In addition, the “gramicidin signal (fluorescence quench)” value in data set [12] is recorded as “alters the gramicidin signal”. Besides, in data set [8], the “effect on reduction in cell viability at high glucose” value was “attenuated the reduction in cell viability”. For the same compound, the “Azithromycin-induced late sodium current” value at Nav1.5 [13] was “the late current was reduced”. The “state-dependence in Nav inhibition” value in the data set with Nav is recorded as “approximately 10 fold”. In the data set with Nav (read-out: IC50, inactivated Nav), the concentration for half-maximal inhibition (IC50) is roughly 1 µM. Besides, in the data set on Nav (read-out: IC50, resting Nav), the 50% inhibitory concentration (IC50) is roughly 10 µM. The “drop in potency in pore-mutant” value in data set [14] is given as roughly 2.5 fold.

For the compound `CC[C@H]1OC(=O)[C@H](C)[C@@H](O[C@H]2C[C@@](C)(OC)[C@@H](O)[C@H](C)O2)[C@H](C)[C@@H](O[C@@H]2O[C@H](C)C[C@H](N(C)C)[C@H]2O)[C@](C)(O)C[C@@H](C)CN(C)[C@H](C)[C@@H](O)[C@]1(C)O` [Azithromycin], at Nav1.5 [13], the “late sodium current compared to control” value is “an increase in late sodium current”.

Consider `NC1=N[C@H](O)[C@H]2[C@H]3O[C@]4(O)O[C@@H]([C@@H](O)[C@@]2(N1)[C@@H]4O)[C@]3(O)CO` [TTX, tetrodotoxin], for which the contraction amplitude in the data set with rat diaphragm muscle is given as ~20 % of control. Further, in the data set with TTX-sensitive channels, the concentration for half-maximal inhibition (IC50) was 0.01 to 0.03 µM.

A word on the IC50: it is the concentration at which inhibition is half-maximal.
